Laboratory results reported in US20240327430A1 (Breakpoint Therapeutics GmbH, priority 2023, published 2024).

Each compound was assayed against truncated Polθ protein (Polθ-Hel containing the helicase domain (67-894)) (Homo sapiens (Human), UniProt O75417) (assay: Polθ ATPase assay (Biological Assay 1, ADP-Glo luminescence)). Details: Polθ-Hel 0.5 nM, DNA substrate 500 nM, ATP 60 μM, 23° C.; read-out: Pole ATPase assay IC50.
Type: biochemical
Method in brief: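 Polθ-Hel (0.5 nM) with 500 nM ssDNA oligo in pH 8.8 Tris buffer (5 mM MgCl2, 1 mM DTT) was preincubated with compound 30 min at 23 °C. The reaction ran 60 min after 60 μM ATP was added (stated as the added solution, not final). ADP formed was detected by ADP-Glo luminescence to derive IC50.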

truncated Polθ protein (Polθ-Hel containing the helicase domain (67-894)), sequence (O75417 67-894): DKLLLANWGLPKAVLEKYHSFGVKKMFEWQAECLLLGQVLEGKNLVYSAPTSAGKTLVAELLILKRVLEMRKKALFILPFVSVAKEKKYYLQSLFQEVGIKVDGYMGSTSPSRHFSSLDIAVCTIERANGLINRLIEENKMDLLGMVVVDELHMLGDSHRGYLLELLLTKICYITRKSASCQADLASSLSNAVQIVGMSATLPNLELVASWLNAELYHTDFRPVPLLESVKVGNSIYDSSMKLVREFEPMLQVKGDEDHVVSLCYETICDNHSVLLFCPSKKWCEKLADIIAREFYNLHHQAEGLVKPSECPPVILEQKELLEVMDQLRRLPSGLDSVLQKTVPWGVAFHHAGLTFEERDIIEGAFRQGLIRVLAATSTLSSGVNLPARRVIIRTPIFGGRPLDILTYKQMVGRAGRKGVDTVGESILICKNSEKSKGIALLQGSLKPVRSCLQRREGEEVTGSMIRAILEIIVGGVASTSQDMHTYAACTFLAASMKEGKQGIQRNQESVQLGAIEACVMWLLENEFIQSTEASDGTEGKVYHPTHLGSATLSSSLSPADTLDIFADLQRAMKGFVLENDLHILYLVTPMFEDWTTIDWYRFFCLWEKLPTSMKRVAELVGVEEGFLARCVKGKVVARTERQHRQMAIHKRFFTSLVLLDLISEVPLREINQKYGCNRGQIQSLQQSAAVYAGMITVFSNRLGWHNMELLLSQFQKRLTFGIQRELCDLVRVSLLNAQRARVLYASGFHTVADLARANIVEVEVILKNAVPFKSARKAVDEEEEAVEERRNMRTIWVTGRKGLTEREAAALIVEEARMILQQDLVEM

Row | Structure (SMILES) | IC50 [nM]
1 | COc1cnc(Cl)cc1-c1cc(C)ncc1C(=O)Nc1nc2ccc(N3CCCCC3=O)nc2s1 [Example 73, 2′-chloro-5′-methoxy-6-methyl-N-[5-(2-oxopiperidin-1-yl)-[1,3]thiazolo[5,4-b]pyridin-2-yl]-[4,4′-bipyridine]-3-carboxamide] | < 100
2 | COc1cnc(Cl)cc1-c1cc(C)ncc1C(=O)Nc1nc2ccc(Cl)nc2s1 [Example 7, 2′-chloro-N-{5-chloro-[1,3]thiazolo[5,4-b]pyridin-2-yl}-5′-methoxy-6-methyl-[4,4′-bipyridine]-3-carboxamide] | < 100
3 | COc1cnc(Cl)cc1-c1cc(C)ncc1C(=O)Nc1nc2ccc(N3CCN(C)CC3=O)cc2s1 [Example 86, 2′-chloro-5′-methoxy-6-methyl-N-[6-(4-methyl-2-oxopiperazin-1-yl)-1,3-benzothiazol-2-yl]-[4,4′-bipyridine]-3-carboxamide] | < 100
4 | COc1cnc(Cl)cc1-c1cc(C)ncc1C(=O)Nc1nc2ccncc2s1 [Example 44, 2′-chloro-5′-methoxy-6-methyl-N-{[1,3]thiazolo[5,4-c]pyridin-2-yl}-[4,4′-bipyridine]-3-carboxamide] | < 100
5 | COc1cnc(Cl)cc1-c1cc(C)ncc1C(=O)Nc1nc2cnc(N3CCNCC3)nc2s1 [Example 55, 2′-chloro-5′-methoxy-6-methyl-N-[5-(piperazin-1-yl)-[1,3]thiazolo[5,4-d]pyrimidin-2-yl]-[4,4′-bipyridine]-3-carboxamide] | < 100
6 | COc1cnc(Cl)cc1-c1cc(C)ncc1C(=O)Nc1nc2ccc(N3CCCS3(=O)=O)cc2s1 [Example 84] | < 100
7 | COc1ccccc1-c1cnccc1C(=O)Nc1nc2ccc(-c3ccc(Cl)cn3)cc2s1 [Example 39, N-[6-(5-chloropyridin-2-yl)-1,3-benzothiazol-2-yl]-3-(2-methoxyphenyl)pyridine-4-carboxamide] | 100 to 1000
8 | COc1cnc(Cl)cc1-c1cc(C)ncc1C(=O)Nc1nc2ccc(S(C)(=N)=O)cc2s1 (stereo not drawn) [Example 83, 2′-chloro-N-{6-[imino(methyl)oxo-λ^6-sulfanyl]-1,3-benzothiazol-2-yl}-5′-methoxy-6-methyl-[4,4′-bipyridine]-3-carboxamide] | < 100
9 | COc1cnc(Cl)cc1-c1cc(C)ncc1C(=O)Nc1nc2cnc(N3CCC(F)(F)CC3)nc2s1 [Example 21, 2′-chloro-N-[5-(4,4-difluoropiperidin-1-yl)-[1,3]thiazolo[5,4-d]pyrimidin-2-yl]-5′-methoxy-6-methyl-[4,4′-bipyridine]-3-carboxamide] | < 100

Results, then the compound that gave them:

Row | IC50 [nM] | Structure (SMILES)
10 | < 100 | COc1cnc(Cl)cc1-c1cc(C)ncc1C(=O)Nc1nc2ccccc2s1 [Example 69, N-(1,3-benzothiazol-2-yl)-2′-chloro-5′-methoxy-6-methyl-[4,4′-bipyridine]-3-carboxamide]
11 | < 100 | COc1cnc(Cl)cc1-c1cc(C)ncc1C(=O)Nc1nc2cnc(N3CC4(CCOC4)C3)nc2s1 [Example 82, 2′-chloro-5′-methoxy-6-methyl-N-(5-{6-oxa-2-azaspiro[3.4]octan-2-yl}-[1,3]thiazolo[5,4-d]pyrimidin-2-yl)-[4,4′-bipyridine]-3-carboxamide]
12 | < 100 | COc1cnc(Cl)cc1-c1cc(C)ncc1C(=O)Nc1nc2cnc(NCC(C)C)nc2s1 [Example 78, 2′-chloro-5′-methoxy-6-methyl-N-{5-[(2-methylpropyl)amino]-[1,3]thiazolo[5,4-d]pyrimidin-2-yl}-[4,4′-bipyridine]-3-carboxamide]
13 | < 100 | COc1cnc(Cl)cc1-c1cc(C)ncc1C(=O)Nc1nc2cnc(N3CCCCC3=O)nc2s1 [Example 94, 2′-chloro-5′-methoxy-6-methyl-N-[5-(2-oxopiperidin-1-yl)-[1,3]thiazolo[5,4-d]pyrimidin-2-yl]-[4,4′-bipyridine]-3-carboxamide]
14 | < 100 | COc1cnc(C(F)(F)F)cc1-c1cc(C)ncc1C(=O)Nc1nc2cnc(N3CCC(O)CC3)nc2s1 [Example 88, N-[5-(4-hydroxypiperidin-1-yl)-[1,3]thiazolo[5,4-d]pyrimidin-2-yl]-5′-methoxy-6-methyl-2′-(trifluoromethyl)-[4,4′-bipyridine]-3-carboxamide]
15 | < 100 | COc1cnc(Cl)cc1-c1cc(C)ncc1C(=O)Nc1nc2ccc(Cl)cc2s1 [Example 1, N-(6-chloro-1,3-benzothiazol-2-yl)-4-(2-chloro-5-methoxy-4-pyridyl)-6-methyl-pyridine-3-carboxamide]
16 | < 100 | COc1cnc(Cl)cc1-c1cc(C)ncc1C(=O)Nc1nc2ccc(C3=CCCOC3)nc2s1 [Example 37, 2′-chloro-N-[5-(5,6-dihydro-2H-pyran-3-yl)-[1,3]thiazolo[5,4-b]pyridin-2-yl]-5′-methoxy-6-methyl-[4,4′-bipyridine]-3-carboxamide]
17 | < 100 | COc1cnc(Cl)cc1-c1cc(C)ncc1C(=O)Nc1nc2cnc(NC3CCC3)nc2s1 [Example 79, 2′-chloro-N-[5-(cyclobutylamino)-[1,3]thiazolo[5,4-d]pyrimidin-2-yl]-5′-methoxy-6-methyl-[4,4′-bipyridine]-3-carboxamide]
18 | < 100 | COc1cnc(Cl)cc1-c1cc(C)ncc1C(=O)Nc1nc2ncc(N3CCCCC3=O)cc2s1 [Example 70]

Same assay, conditions: Table B; compounds of Experimental Part B, in vitro; read-out: Polθ ATPase assay IC50

Row | Structure (SMILES) | IC50 [nM]
19 | COc1cnc(Cl)cc1-c1cc(C)ncc1C(=O)Nc1nc2ccc(C3COCCN3)cc2s1 (stereo not drawn) [Example 128, 2′-chloro-5′-methoxy-6-methyl-N-[6-(morpholin-3-yl)-1,3-benzothiazol-2-yl]-[4,4′-bipyridine]-3-carboxamide] | < 100
20 | COc1cnc(Cl)cc1-c1cc(C)ncc1C(=O)Nc1nc2c(Br)cccc2s1 [Example 99, N-(4-bromo-1,3-benzothiazol-2-yl)-2′-chloro-5′-methoxy-6-methyl-[4,4′-bipyridine]-3-carboxamide] | < 100
21 | COc1cnc(Cl)cc1-c1cc(C)ncc1C(=O)Nc1nc2cc(OCc3nn[nH]n3)ccc2s1 [Example 121, 2′-chloro-5′-methoxy-6-methyl-N-{5-[(2H-1,2,3,4-tetrazol-5-yl)methoxy]-1,3-benzothiazol-2-yl}-[4,4′-bipyridine]-3-carboxamide] | < 100
